Measured values published in US11214586B2, “Rhodamine triplet state complex and preparation and photodynamic therapy (PDT) study thereof” (SOUTHERN UNIVERSITY OF SCIENCE AND TECHNOLOGY, priority 2018, dated 2022).
Where two headings read alike, the source gives them in different places.

What was measured:
[1] = system: MCF-7 cells; assay: Mitochondrial membrane potential, flow-cytometry-based JC-1 assay; type: cell-based, human; conditions: 5 uM, 11 W lamp 30 min
Description: Mitochondrial depolarization was assessed by flow cytometry after incubation with JC-1 Molecular Probes (Thermo Fisher Scientific, USA). Briefly, The MCF-7 cells were seeded in six-well plate, incubated for 24 h in 5% CO2 at 37° C. Next, added to compounds (bpy-Rho and M-Rho) in medium make the final concentrations of 5 uM compounds. After irradiation treatment (11 W lamp 30 min). The cells were resuspended in warm PBS, and incubated with JC-1 (4 μg/ml) for 30 min at 37° C. and 5% CO2. Thereafter the cells were centrifuged, resuspended in 600 μL of PBS, and analyzed immediately on a flow cytometer (Becton Dickinson, San Jose, Calif., USA). Untreated cells were used as negative controls.

[2] = Singlet oxygen quantum yield; type: physicochemical; conditions: for ΦΔ (singlet oxygen quantum yield): relative to rose bengal (ΦΔ = 0.76)
Description: (§1) The long-lived triplet excited state of rhodamine is anticipated to interact with molecular oxygen (^3O2) to form singlet oxygen (^1O2), which is useful for PDT applications. The ability of M-Rho to produce ^1O2 has been evaluated spectroscopically by the observation of ^1O2 emission at about 1270 nm (inset of FIG. 2b). Remarkable ^1O2 emission is observed in Ir-Rho, Re-Rho and Pt-Rho but not for Rh-Rho and bpy-Rho. By monitoring the diminution of the characteristic absorption of the ^1O2 scavenger 1,3-diphenylisobenzofuran (DPBF) at 410 nm, ^1O2 generation is also confirmed and the corresponding quantum yields (ϕΔ) for the complexes are determined (Table 1). […] The rate and quantum yield of ^1O2 generation are found to vary with different metal systems.
Singlet oxygen quantum yield was determined by comparing the ^1O2 emission intensity of Rose Bengal and M-Rho.

[3] = Octanol-water partition coefficient
Description: (§3) Octanol-water partition coefficients (log Po/w)^[27] of bpy-Rho and M-Rho have been measured in order to study their lipophilic/hydrophilic characters. The higher is the log Po/w value associated with the dye, the higher is its lipophilic character.

[4] = Singlet oxygen emission at about 1270 nm; type: physicochemical; conditions: in CH3CN
Description: Singlet oxygen emission was detected by using FLS-980 spectrofluorometer. All of the compounds were dissolved in CH3CN. The absorbance at 532 nm was adjusted to be around 1.7 for all the compounds. Upon measurements, an 850 nm long-pass filter was inserted in between the sample and the detector to avoid many high-order diffraction from the visible emission.

[5] = Nanosecond transient absorption difference spectroscopy; type: physicochemical; conditions: for TT (triplet-state lifetimes): measured by transient absorption in CH3CN
Description: Nanosecond transient absorption (TA) difference spectroscopy was employed to investigate the triplet excited states of M-Rho (FIG. 2c and FIGS. 16-19). Upon pulsed laser excitation at 355 nm, an intense bleaching signal at 575 nm with lifetime in microsecond range is observed, which is ascribed to the depletion of ground state rhodamine absorption. Such a long-lived excited state should be localized on the rhodamine unit, and is assigned as the ^3IL excited state of rhodamine in M-Rho. The absorption signal at 610-800 nm is due to the rhodamine ^3IL excited state absorption. In contrast, no signal from this triplet excited state is detected in bpy-Rho because of the lack of efficient ISC. On the other hand, only the transient absorption signals originating from the corresponding ^3MLCT excited states are observed in the rhodamine-free analogues (FIGS. 20-21).
(§2) The UV-vis absorption spectra were taken on Cary 60 UV-vis spectrophotometer. Steady-state emission spectra at room temperature were recorded on an Edinburgh Instruments FLS980 fluorescence spectrometer. Quartz cuvettes (path length=1 cm) were used in all spectrophotometric and fluorometric measurements. NMR spectra were recorded on a Bruker AVANCE 400 (^1H NMR for 400 MHz and ^13C NMR for 100 MHz) Fourier transform NMR spectrometer with chemical shifts reported relative to tetramethylsilane, (CH3)4Si. High-resolution MS spectra were performed on an Orbitrap Fusion Tribrid mass spectrometer. Elemental analyses of the newly synthesized complexes were preformed on a Elementar Vario EL Cube elemental analyzer at Sun Yat-sen University. The nanosecond time-resolved transient-difference absorption spectra were detected by using Edinburgh LP920 instruments (Edinburgh Instruments, U.K.). All solutions for transient absorption studies were degassed on a high-vacuum line in a two-compartment cell consisting of a 10-ml Pyrex bulb and a 1-cm or 4-mm path length quartz cuvette and sealed from the atmosphere by a Bibby Rotaflo HP6 Teflon stopper. The solutions were rigorously degassed with at least four successive freeze-pump-thaw cycles. Emission lifetime measurements were performed using a conventional laser system. The excitation source used was a 355-nm output (third harmonic) of a Spectra-Physics Quanta-Ray Q-switched GCR-150-10 pulsed Nd-YAG laser. Luminescence decay signals were detected by a Hamamatsu R928 PMT and recorded on a Tektronix Model TDS-620A (500 MHz, 2 GS/s) digital oscilloscope and analyzed using a program for exponential fits. Absolute quantum yields were measured by HAMAMATSU-C11347.

[6] = Steady-state emission spectra and absolute luminescence quantum yield; type: physicochemical; conditions: for λem: Conc. = 1.0 × 10^−6M in MeOH; for Φlum: absolute luminescence quantum yield measured by HAMAMATSU-C11347
Description: as §2

[7] = UV/Vis absorption spectra; type: physicochemical; conditions: for λabs: absorption maximum, in CH3CN; for ε × 10^4: molar extinction coefficient at the absorption maxima, values × 10^4
Description: as §2

[8] = system: MCF-7 cells; assay: Mitochondria-localized ROS, MitoSOX Red; type: cell-based, human; conditions: 10 μM, 11 W lamp irradiation for 10 min
Description: (a) Confocal fluorescence microscopic images of MCF-7 cells treated with MitoSOX (1.0 μM) according to the treatment variables, including with coincubation with bpy-Rho and M-Rho (10 μM), 11 W lamp irradiation for 10 min. (b) Flow cytometry analysis of MCF-7 cells (n=10000 cells) after treatment with MitoSox and different Rhodamine-metal Complexes mean fluorescence intensity per cell.
On the basis of the results of intracellular ROS production and colocalization study, it is reasonable to anticipate that the ROS is essentially generated within the mitochondria. MitoSOX Red reagent, a mitochondrial ROS indicator, is also used to probe specifically the generation of mitochondria-localized ROS. Intense red fluorescence from the oxidation of MitoSOX is observed in both confocal fluorescence microscopy images (FIG. 26a) and flow cytometry analysis (FIG. 26b) of MCG-7 cells incubated with MitoSOX and M-Rho.

[9] = system: MCF-7 cells; assay: Subcellular localization with MitoTracker Green; type: cell-based, human; conditions: 5 μM, co-stained with MitoTracker Green
Description: MCF-7 cells (5000 cells) were cultured in eight-well chambered coverglasses (lab-Tek, Nunc, USA) for 24 h. Later, added to the cells to give final complexes concentrations (5 μM). After incubation for 30 min, The cells were treated with Mito-Tracker for 10 min to stain specifically the mitochondria (1:5000 dilution in PBS). After washing three times with PBS, followed by confocal microscopy imaging.

[10] = system: MCF-7 cells; assay: Intracellular ROS, DCFH-DA assay; type: cell-based, human; conditions: 5 μM, 11-W lamp for 30 min
Description: The MCF-7 cells were seeded in eight-well chambered coverglasses (lab-Tek, Nunc, USA) and six-well plate, incubated for 24 h in 5% CO2 at 37° C. Next, added to compounds (bpy-Rho and M-Rho) in medium make the final concentrations of 5 μM compounds. After irradiation treatment (11 W lamp 30 min), cells were promptly washed with PBS and incubated with 4 μg/ml 2′7′-dichloro-fluoreseindiacetate (DCFH-DA) for 30 min, and intracellular ROS generation was evaluated by flow cytometry and confocal microscopy.

[11] = DPBF 1O2 scavenger absorbance under 11-W lamp irradiation; type: physicochemical; conditions: irradiation with a 11-W lamp; 50 μM DPBF, 5 μM compound
Description: Rose Bengal was measured in MeOH.
as §1

[12] = physchem
Description: as §3

[13] = octanol-water, literature value; cited from earlier work

| Structure (SMILES) | ratio of JC-1 aggregates/JC-1 monomers [1] | rate and quantum yield of 1O2 generation, ranking ([2]; among M-Rho) | ΦΔ (singlet oxygen quantum yield) [2] | log Po/w [3] | 1O2 emission at about 1270 nm [4] | TT (triplet-state lifetimes) [5] [μs] | λem [6] [nm] | Φlum [6] | λabs [7] [nm] | ε × 10^4 [7] [M^−1 cm^−1] | MitoSOX red fluorescence (mitochondria-localized ROS) [8] | mitochondrial localization [9] | intracellular ROS generation [10] | signal from rhodamine triplet excited state ([5]; excitation at 355 nm) | emission ([6]; in MeCN) [nm] | DPBF absorption at 410 nm [11] | logP [12] | log Po/w [13] |
| --- | --- | --- | --- | --- | --- | --- | --- | --- | --- | --- | --- | --- | --- | --- | --- | --- | --- | --- |
| CCN(CC)c1ccc2c(-c3ccnc(-c4cc(C)ccn4)c3)c3ccc(=[N+](CC)CC)cc-3oc2c1.F[P-](F)(F)(F)(F)F.F[P-](F)(F)(F)(F)F.c1ccc(-c2cccc[c]2[Rh+][c]2ccccc2-c2ccccn2)nc1 [Rh-Rho] | 11.28 | worst photosensitizer | 0.37 | −1.05 | not | 14.1 | 629 | 0.23 | 574 | 8.24 |  |  |  |  |  |  |  |  |
| CCN(CC)c1ccc2c(-c3ccnc(-c4cc(C)ccn4)c3)c3ccc(=[N+](CC)CC)cc-3oc2c1 [bpy-Rho, N-(6-(diethylamino)-9-(4′-methyl-[2,2′-bipyridin]-4-yl)-3H-xanthen-3-ylidene)-N-ethylethanaminium] | 14.23 |  | 0.08 |  | not |  | 598 | 0.29 | 564 | 9.86 | very weak red fluorescence | relatively less mitochondria-localized | negligible or a little amount of ROS | no signal | 598 | negligible decrease | 0.49 |  |
| CCN(CC)c1ccc2c(-c3ccnc(-c4cc(C)ccn4)c3)c3ccc(=[N+](CC)CC)cc-3oc2c1.F[P-](F)(F)(F)(F)F.[C](#Cc1ccccc1)[Pt][C]#Cc1ccccc1 [Pt-Rho] | 8.16 |  | 0.57 | 1.26 | Remarkable | 8.49 | 631 | 0.062 | 574 | 7.96 |  |  |  |  |  |  |  |  |
| COC(=O)c1ccccc1-c1c2ccc(=N)cc-2oc2cc(N)ccc12.Cl [rhodamine 123] |  |  |  |  |  |  |  |  |  |  |  |  |  |  |  |  |  | −0.62 |
